Results on nine substances are retold here after patent publication US20240408180A1, “IONIC LIQUIDS FOR DRUG DELIVERY” (PRESIDENT AND FELLOWS OF HARVARD COLLEGE, priority 2021, published 2024).

Data set [1] concerns the target Type I Human Collagen (human) (UniProt P02452). The data set is described as follows: fluorescence polarization of Cy5.5-insulin mixed with Type I human collagen.
Data set [2] shares this target. Nature of the data set: dynamic light scattering time course after mixing with collagen.
The target is the same in data set [3]. The data set is described as follows: dynamic light scattering after mixing the insulin formulation with collagen.
Data set [4] has as its target T1, insulin (Homo sapiens, UniProt P01308).
T1 construct: in this case insulin around 5.8 kDa; purchased Sigma Aldrich (St. Louis, MO)
Nature of the data set: Circular dichroism of insulin secondary structure in ILs. The class given is physicochemical. As to conditions: one hour at room temperature and at 37 C; insulin ~6 U/mL (0.2 mg/mL); versus saline negative control. As for the experimental part: Circular dichroism was used to assess insulin secondary structure (FIG. 2). The experiment was performed after incubation at room temperature and at 37° C. (physiological temperature) for one hour. This was done to assess whether the heat change associated with subcutaneous injection may affect the insulin structure. […] “aCG” refers to acetylcholine glycolic acid and “aCH” refers to acetylcholine hexenoic acid. Insulin concentration was ˜6 U/mL (0.2 mg/mL).

Data set [5] can be described thus: In vivo PK of insulin in ILs after subcutaneous injection. As to conditions: rats, insulin 1 U/kg, non-fasted.
In data set [6] the test system is antibody. The data set is described as follows: Antibody stability by circular dichroism. It is filed as physicochemical. The following applies: one hour at room temperature; versus fresh antibody control. How it is done: (§1) Antibody stability was next tested. Circular dichroism and SDS-PAGE were used to assess antibody stability (FIG. 5). […] Additionally, SDS-PAGE was used to assess whether acetylcholine caused aggregation (of particular importance for large beta-sheet biologics like antibodies). […] Both CD and SDS-PAGE were performed after incubation at room temperature for one hour.
(In general: Circular dichroism is widely used to follow secondary structure.)

Data set [7] has as its system antibody. The data set is described as follows: Antibody aggregation by SDS-PAGE. It is filed as physicochemical. The following applies: one hour at room temperature; versus control. As for the experimental part:
as §1

A further data set concerns dendritic cell line. The data set is described as follows: In vitro transfection with mRNA nanoparticles coated with DES. As to conditions: 4 hours incubation, flow cytometry. It is filed as cell-based. How it is done: IL delivery of mRNA in vitro was assessed. The in vitro transfection experiments were performed in a dendritic cell line with mRNA nanoparticles and indicate that acetylcholine hexenoic acid DES can enhance mRNA treatments. The particles were incubated with acetylcholine DES solutions to “coat” the particles. The cells were incubated with the particles for the 4 hours before analyzing with flow cytometry.
Background: In flow cytometry, cells or beads pass a laser one at a time.

In data set [8] the target is T1, insulin. The data set is described as follows: Stressed aging test of insulin-DES formulations (transmittance). The class given is physicochemical. The following applies: 50 hours at 37 C with constant shaking. As for the experimental part: Successful dissolution of insulin was determined by the turbidity of the formulation, assessed by converting absorbance at 540 nm to transmittance.^16 The percent transmittance threshold for the successful formulation was set at 80% as this was the mean transmittance for the clinical comparator (Humalog). Low transmittance values are indicative of insoluble insulin aggregates. All but two formulations met this criterion (FIG. 13). To further screen the remaining DES formulations, a stressed aging test was performed to determine their stability for 50 hours at 37° C. with constant shaking.
(§2) The insulin-DES formations were first analyzed for initial transmittance to confirm that there was no insulin aggregation immediately after formulation preparation. Subsequently, formulations that passed initial screening were plated in a black-walled 96 well plate (replicates of three) and subjected to a stressed aging assay in which the plate was incubated at 37° C. with constant shaking. Absorbance readings were taken every 15 minutes for 50 hours to assess the change in transmittance over time. For cold chain stability, formulations were tested in a similar manner, without constant shaking, at 4° C. for 28 days.

Data set [9] concerns the target T1, insulin. Nature of the data set: Cold-chain stability of insulin-DES formulations (transmittance). The following applies: 4 C over 28 days. The class given is physicochemical. How it is done: (§3) The final screening was performed to assess cold-chain stability and confirm monomer conformational stability. […] The stability of hexenoate-based formulations was further confirmed by assessing the protein's secondary structure through circular dichroism (CD). […] CD spectra integrity was also confirmed by measuring the high-tension voltage, which was maintained below 500 V for the relevant insulin CD wavelengths (FIG. 14).
as §2

Data set [10] concerns the target T1, insulin. The data set is described as follows: Circular dichroism of insulin-DES formulations. It is filed as physicochemical. As to conditions: 37 C for two hours. How it is done: as §3
Protein Stability Assessment Using Circular Dichroism and SDS-PAGE. […] In preparation for circular dichroism (CD) and SDS-PAGE, the post-dialysis concentration was measured with UV Spectrophotometry (Thermo Scientific NanoDrop One) and adjusted to 200 μg/mL. CD was performed by loading quartz cuvettes (Starna Cells Spectrosil Quartz 1-Q-1), with 200 μL of the sample, into a CD spectrophotometer (Jasco J-815). Mean ellipticity was measured from 190 to 250 nm.

The target of the next data set is T2, Type I human collagen (Homo sapiens, UniProt P02452+P08123).
T2 construct: purchased Advanced BioMatrix (Carlsbad, CA)
T2 sequence (P02452 162-1218 limits assumed): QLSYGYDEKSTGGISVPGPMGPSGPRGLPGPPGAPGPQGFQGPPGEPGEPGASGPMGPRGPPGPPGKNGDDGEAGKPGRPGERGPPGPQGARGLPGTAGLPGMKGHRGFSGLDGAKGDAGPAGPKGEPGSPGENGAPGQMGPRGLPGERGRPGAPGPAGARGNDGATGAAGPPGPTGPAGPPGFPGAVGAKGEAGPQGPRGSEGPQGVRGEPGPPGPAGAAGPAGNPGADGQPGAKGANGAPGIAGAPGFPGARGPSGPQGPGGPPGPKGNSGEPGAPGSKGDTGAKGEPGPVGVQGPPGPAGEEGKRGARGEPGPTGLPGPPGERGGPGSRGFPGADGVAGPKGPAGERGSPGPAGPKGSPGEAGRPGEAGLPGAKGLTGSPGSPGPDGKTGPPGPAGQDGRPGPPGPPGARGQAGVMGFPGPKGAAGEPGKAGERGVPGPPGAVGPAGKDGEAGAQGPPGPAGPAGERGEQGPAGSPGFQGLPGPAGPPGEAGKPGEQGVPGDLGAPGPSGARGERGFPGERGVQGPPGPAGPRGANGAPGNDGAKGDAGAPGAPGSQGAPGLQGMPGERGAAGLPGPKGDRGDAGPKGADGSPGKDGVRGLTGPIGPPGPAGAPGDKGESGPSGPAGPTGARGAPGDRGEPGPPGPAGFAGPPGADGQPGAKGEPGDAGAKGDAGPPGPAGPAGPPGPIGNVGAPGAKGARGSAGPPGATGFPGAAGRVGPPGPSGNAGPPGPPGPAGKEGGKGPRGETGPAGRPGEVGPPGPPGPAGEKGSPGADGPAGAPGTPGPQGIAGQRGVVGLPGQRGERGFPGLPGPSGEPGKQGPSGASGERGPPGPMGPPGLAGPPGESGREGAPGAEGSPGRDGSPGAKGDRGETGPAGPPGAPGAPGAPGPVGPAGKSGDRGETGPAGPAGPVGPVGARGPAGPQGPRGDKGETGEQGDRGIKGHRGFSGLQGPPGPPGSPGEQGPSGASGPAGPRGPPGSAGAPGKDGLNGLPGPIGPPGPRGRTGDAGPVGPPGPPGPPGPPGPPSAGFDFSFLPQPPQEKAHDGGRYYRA
T2 sequence (P08123 80-1119 limits assumed): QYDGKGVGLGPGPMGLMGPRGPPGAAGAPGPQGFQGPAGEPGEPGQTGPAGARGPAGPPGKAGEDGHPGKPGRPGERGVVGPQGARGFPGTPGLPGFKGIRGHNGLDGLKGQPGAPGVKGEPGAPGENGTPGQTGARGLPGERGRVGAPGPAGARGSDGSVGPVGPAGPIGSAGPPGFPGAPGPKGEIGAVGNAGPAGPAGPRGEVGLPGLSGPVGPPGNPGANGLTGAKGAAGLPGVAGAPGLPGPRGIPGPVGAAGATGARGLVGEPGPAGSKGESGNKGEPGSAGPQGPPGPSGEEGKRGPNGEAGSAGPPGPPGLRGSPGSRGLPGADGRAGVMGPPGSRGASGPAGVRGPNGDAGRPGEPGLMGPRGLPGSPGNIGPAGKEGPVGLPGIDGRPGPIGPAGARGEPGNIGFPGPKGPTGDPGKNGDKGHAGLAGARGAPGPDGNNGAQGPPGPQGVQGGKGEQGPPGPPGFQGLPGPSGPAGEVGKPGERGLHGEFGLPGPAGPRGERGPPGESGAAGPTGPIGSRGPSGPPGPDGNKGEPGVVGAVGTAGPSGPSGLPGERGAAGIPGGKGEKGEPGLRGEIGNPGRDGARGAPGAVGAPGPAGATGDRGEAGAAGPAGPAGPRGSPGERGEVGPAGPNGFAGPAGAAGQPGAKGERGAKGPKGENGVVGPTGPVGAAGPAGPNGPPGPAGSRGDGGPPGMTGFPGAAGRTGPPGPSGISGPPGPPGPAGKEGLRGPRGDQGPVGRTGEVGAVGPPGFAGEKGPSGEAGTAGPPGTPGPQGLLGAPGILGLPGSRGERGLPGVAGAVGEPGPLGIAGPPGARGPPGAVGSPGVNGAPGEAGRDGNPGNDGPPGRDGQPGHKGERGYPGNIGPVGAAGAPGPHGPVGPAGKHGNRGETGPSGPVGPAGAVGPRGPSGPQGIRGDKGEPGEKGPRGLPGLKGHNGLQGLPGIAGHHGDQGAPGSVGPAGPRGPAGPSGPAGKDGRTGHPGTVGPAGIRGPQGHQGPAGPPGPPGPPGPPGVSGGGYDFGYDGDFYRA
The data set is described as follows: Fluorescence polarization of Cy5.5-labeled insulin mixed with collagen. The class given is binding. As to conditions: Cy5.5-labeled insulin in aCH versus saline control. How it is done:
The ability of SPADE to mitigate the interactions of proteins with ECM was assessed using the lead DES, aCH. A schematic representation of the hypothesized mechanism is depicted in FIG. 8A. SPADE (right) is hypothesized to decrease non-specific binding between administered therapeutic proteins and subcutaneous extracellular proteins such as collagen to allow for faster and greater absorption of protein biologics. To test this hypothesis, fluorescence polarization (FP) was performed and dynamic light scattering (DLS) utilized to determine the degree of collagen-insulin association. […] The average polarization was 1.5 times higher for the control group than the SPADE group. To further confirm the FP results and compare against Humalog, DLS was used to measure the average particle diameter (z-avg) after mixing insulin formulations with collagen, as the z-avg for insulin-bound collagen would increase with fewer unbound insulin molecules remaining and only the collagen or collagen-insulin complex being detected. The initial average z-avg for both the Humalog- and SPADE-insulin-collagen mixtures were approximately 100 nm. […]
Physical stability of the formulations in the presence of collagen was further assessed using fluorescence polarization (FP). […] When insulin is fluorescently labeled and excited with polarized light the perpendicular and parallel polarized light emission can be measured. […]
A general note: Fluorescence polarisation rises when a labelled molecule tumbles more slowly, as on binding a larger partner.

For data set [11], the system named is rituximab. Nature of the data set: SPADE-mAb stability by SDS-PAGE. The class given is physicochemical. The following applies: for rituximab stability by SDS-PAGE: 37 C for 2 and 24 hours. How it is done:
(§4) Described herein the exploration of whether SPADE can also enhance the absorption of a large protein biologic, namely monoclonal antibody rituximab (SPADE-mAb), that would benefit from greater absorption from subcutaneous administration. Due to the clinical requirement of higher dosing for subcutaneous antibody formulation compared to insulin, we first assessed DES concentration for stable SPADE formulation with rituximab using SDS-PAGE and CD. Formulations were prepared with various DES concentrations and consistent rituximab concentrations and incubated at 37° C. for 2 and 24 hours. After incubation, the samples were dialyzed against sodium phosphate to remove DES, and the resulting samples were diluted to the same concentration via UV-Vis spectrophotometry before SDS-PAGE and CD analyses. […] To further confirm this CD was used to assess the secondary structure of the samples that were incubated for 24 hours.
Protein Stability Assessment Using Circular Dichroism and SDS-PAGE. Insulin and antibody formulations were incubated at 37° C. for one hour and subsequently dialyzed against 10 mM Sodium Phosphate pH 7.4. In preparation for circular dichroism (CD) and SDS-PAGE, the post-dialysis concentration was measured with UV Spectrophotometry (Thermo Scientific NanoDrop One) and adjusted to 200 μg/mL. CD was performed by loading quartz cuvettes (Starna Cells Spectrosil Quartz 1-Q-1), with 200 μL of the sample, into a CD spectrophotometer (Jasco J-815). Mean ellipticity was measured from 190 to 250 nm.
To assess antibody aggregation, SDS-PAGE was performed using vertical gel electrophoresis (BioRad Mini-PROTEAN Tetra Cell) loaded with precast polyacrylamide gels (BioRad TGX 4-15%) according to the manufacturer protocol. To form SDS complexes, samples were incubated in 1× Lammeli buffer for 10 minutes at 70° C. before loading in the gel. After 30 minutes of electrophoresis, the gel was removed and protein bands stained with Coumassie dye.

The subject of data set [12] is rituximab. Nature of the data set: SPADE-mAb stability by circular dichroism. It is filed as physicochemical. As to conditions: 37 C for 24 hours. As for the experimental part:
as §4
Protein Stability Assessment Using Circular Dichroism and SDS-PAGE. Insulin and antibody formulations were incubated at 37° C. for one hour and subsequently dialyzed against 10 mM Sodium Phosphate pH 7.4. In preparation for circular dichroism (CD) and SDS-PAGE, the post-dialysis concentration was measured with UV Spectrophotometry (Thermo Scientific NanoDrop One) and adjusted to 200 μg/mL. […] Mean ellipticity was measured from 190 to 250 nm.

For data set [13] the following is noted: rat, in vivo, 10 mg/kg; cited from earlier work.

Type I Human Collagen (human), sequence (P02452 179-1192 limits assumed, chain 1 of 2): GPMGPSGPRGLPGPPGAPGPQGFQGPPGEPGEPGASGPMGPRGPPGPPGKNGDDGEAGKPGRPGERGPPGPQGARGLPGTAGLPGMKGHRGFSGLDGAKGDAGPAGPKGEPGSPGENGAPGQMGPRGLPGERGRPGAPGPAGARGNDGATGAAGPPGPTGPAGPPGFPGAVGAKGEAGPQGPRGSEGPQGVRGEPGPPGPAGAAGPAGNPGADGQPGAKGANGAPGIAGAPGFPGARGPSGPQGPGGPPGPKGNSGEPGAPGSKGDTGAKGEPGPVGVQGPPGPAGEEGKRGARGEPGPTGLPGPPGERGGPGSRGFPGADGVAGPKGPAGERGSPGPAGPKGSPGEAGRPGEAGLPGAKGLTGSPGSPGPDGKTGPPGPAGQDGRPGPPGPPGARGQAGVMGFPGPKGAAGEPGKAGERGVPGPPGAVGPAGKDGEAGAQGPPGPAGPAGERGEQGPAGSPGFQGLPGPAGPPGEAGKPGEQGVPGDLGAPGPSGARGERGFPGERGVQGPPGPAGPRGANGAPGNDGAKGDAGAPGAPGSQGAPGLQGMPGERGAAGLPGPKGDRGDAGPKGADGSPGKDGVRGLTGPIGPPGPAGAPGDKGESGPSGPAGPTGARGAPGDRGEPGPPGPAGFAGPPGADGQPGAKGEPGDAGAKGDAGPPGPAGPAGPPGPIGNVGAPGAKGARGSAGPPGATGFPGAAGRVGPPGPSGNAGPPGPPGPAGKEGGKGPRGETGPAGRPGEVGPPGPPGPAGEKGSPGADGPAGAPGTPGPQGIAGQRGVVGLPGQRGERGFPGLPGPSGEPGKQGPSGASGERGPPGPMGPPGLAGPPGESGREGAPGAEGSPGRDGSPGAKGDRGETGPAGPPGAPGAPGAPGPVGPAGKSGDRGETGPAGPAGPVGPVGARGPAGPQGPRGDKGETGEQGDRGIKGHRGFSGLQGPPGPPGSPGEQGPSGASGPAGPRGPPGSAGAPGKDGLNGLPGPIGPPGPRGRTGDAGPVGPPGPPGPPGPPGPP
Type I Human Collagen (human), sequence (P08123 91-1104 limits assumed, chain 2 of 2, further chain): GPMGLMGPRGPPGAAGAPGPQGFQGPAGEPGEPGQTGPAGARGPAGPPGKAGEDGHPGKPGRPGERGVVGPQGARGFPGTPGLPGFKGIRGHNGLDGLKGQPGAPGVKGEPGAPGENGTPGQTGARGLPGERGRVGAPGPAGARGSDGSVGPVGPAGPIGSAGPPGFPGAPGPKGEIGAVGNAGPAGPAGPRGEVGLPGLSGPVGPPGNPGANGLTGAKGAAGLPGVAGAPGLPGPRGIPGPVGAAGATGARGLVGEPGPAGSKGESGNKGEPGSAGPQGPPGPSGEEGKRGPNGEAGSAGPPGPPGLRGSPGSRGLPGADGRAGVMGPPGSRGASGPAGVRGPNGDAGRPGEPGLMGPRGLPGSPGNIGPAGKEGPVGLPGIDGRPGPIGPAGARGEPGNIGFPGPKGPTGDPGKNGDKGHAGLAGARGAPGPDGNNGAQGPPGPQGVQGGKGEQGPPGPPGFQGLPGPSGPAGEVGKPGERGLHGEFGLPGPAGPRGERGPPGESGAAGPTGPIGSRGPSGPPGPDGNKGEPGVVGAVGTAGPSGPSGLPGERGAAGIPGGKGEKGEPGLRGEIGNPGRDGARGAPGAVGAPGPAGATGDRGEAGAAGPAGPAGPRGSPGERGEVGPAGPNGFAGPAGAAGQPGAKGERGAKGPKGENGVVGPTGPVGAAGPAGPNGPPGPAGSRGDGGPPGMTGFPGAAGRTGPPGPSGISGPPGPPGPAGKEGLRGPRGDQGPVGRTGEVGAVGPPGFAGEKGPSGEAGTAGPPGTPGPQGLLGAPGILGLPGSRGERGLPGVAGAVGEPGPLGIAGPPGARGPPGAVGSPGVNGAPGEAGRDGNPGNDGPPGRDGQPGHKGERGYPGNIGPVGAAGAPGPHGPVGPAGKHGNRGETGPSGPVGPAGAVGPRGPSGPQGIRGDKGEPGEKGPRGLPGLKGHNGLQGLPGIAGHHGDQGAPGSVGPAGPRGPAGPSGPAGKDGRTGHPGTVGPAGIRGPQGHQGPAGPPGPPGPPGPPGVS
T1 sequence (P01308 25-54 limits assumed, species assumed): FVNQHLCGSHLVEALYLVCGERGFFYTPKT
T1 sequence (P01308 90-110 limits assumed, species assumed): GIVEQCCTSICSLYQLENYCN
Cy 5.5 fluorescently-labeled insulin (ligand), sequence (P01308 25-54): as the sequence (P01308 25-54 limits assumed, species assumed) above

In data set [1], “Cy 5.5 fluorescently-labeled insulin (ligand)” yielded a fold average polarization, control (saline) over SPADE (aCH) of 1.5 fold.

For Humalog (insulin lispro) (ligand), the average particle diameter (z-avg) of the mixture with collagen over 60 min in data set [2] was above 5000 nm. The initial average particle diameter (z-avg) of the mixture with collagen in data set [3] worked out at 100 nm.

acetylcholinium glycolate DES [aCG]: at insulin [4], the “insulin secondary structure (circular dichroism curves)” value is recorded as “match the saline negative control groups”. In [5], the “Cmax of serum insulin, greater than the choline variant” value is 50%.

Take acetylcholinium hexenoate DES [aCH]: the “insulin secondary structure (circular dichroism curves)” value on insulin [4] is “match the saline negative control groups”. The “secondary structure of the antibody (circular dichroism)” value in the data set on antibody [6] is recorded as “not affected”. For the same substance, the “antibody aggregation (SDS-PAGE)” value in the data set with antibody [7] is listed as “looked the same as the control”. Moreover, in the data set with dendritic cell line, the “mean fluorescent intensity (GFP expression)” value is given as “higher”. Besides, the “percent of cells expressing GFP” value in the data set on dendritic cell line was “increased”. Besides, the “outcome of stressed aging test” value on insulin [8] is “viable”. Also, at insulin [9], the cold-chain stability entry was “stable through Day 28”. Besides, the “CD spectra of insulin versus control insulin in sodium phosphate buffer” value on insulin [10] was “matched that of the control insulin”. For the same substance, on Type I human collagen, the “non-specific insulin-collagen binding (fluorescence polarization)” value is on record as “inhibits non-specific insulin-collagen binding”. For the same substance, the “rituximab stability by SDS-PAGE” value was “faint band further up the gel” in the data set on rituximab [11] (10% (v/v) DES) and “stable” in the data set on rituximab [11] (all DES concentrations apart from 10% (v/v)). In the data set on rituximab [11] (SDS-PAGE and CD stability studies), the “appropriate DES concentration for the SPADE-mAb formulation (from stability studies)” value is 5 % (v/v). The “rituximab secondary structure by CD versus control” value in the data set with rituximab [12] (10% (v/v) DES) was “shift in mean ellipticity”; with rituximab [12] (DES concentrations other than 10% (v/v)), “none of the other DES concentrations experienced this shift”.

Turning to acetylcholinium priopionate DES [aCP], at insulin [8], the “outcome of stressed aging test” value is “viable”.

For cholinium hexenoate DES, the “outcome of stressed aging test” value at insulin [8] is “viable”. Further, the cold-chain stability result at insulin [9] is listed as “stable through Day 28”. Moreover, the “CD spectra of insulin versus control insulin in sodium phosphate buffer” value on insulin [10] was “matched that of the control insulin”.

As for cholinium propionate DES [CP], the “outcome of stressed aging test” value at insulin [8] is “viable”.

hyaluronidase: the “increase of rituximab absorption” value in data set [13] is 91%.

In the case of “regular insulin formulated in aCH (SPADE-insulin) (from UniProt P01308 25-54; P01308 90-110) (ligand)”, in data set [2], the average particle diameter (z-avg) of the mixture with collagen over 60 min is 100 nm. Further, in data set [3], the initial average particle diameter (z-avg) of the mixture with collagen is 100 nm.
